We go through 11 compounds from US9663561B2, “Methods of treatment of cancer using SRC-modulating peptides” (The University of Toledo, priority 2006, dated 2017).

Series [1] concerns LLC-PK1 cells. The series is described as follows: Sensitivity of LLC-PK1-derived cells to selection agents. It is filed as cell-based, pig. The procedure: Another batch of cells was co-transfected with pEYFP together with the pSuppressor-A4 siRNA and pBade-puro so that the co-expressed EYFP could be used as a marker to pick clones. Empty vector (pSuppressor) or A1 siRNA-transfected cells were co-selected and used as a control. The cells were selected with puromycin (1 μg/ml) 24 h posttransfection. Puromycin-resistant colonies were cloned and expanded. To rescue the Na+/K+-ATPase knockdown cells, cells were transfected with the pRc/CMV-α1AACm1. Selection was initiated with 3 μM ouabain because untransfected cells were very sensitive to ouabain. After about 1 week, ouabain-resistant colonies were isolated and expanded into stable cell lines in the absence of ouabain. G418 was not used because these cells are resistant to it, requiring more than 3 mg/ml to kill the untransfected cells.

Series [2] concerns the target T1, Src (Gallus gallus, UniProt P00523).
T1 construct: His; made in house; host or cells: sf-9 cells (Src without the first 85 residues); Escherichia coli BL21 (His-tagged constructs)
The series is described as follows: In vitro binding assay of GST-Na+/K+-ATPase constructs with purified or His-tagged Src. As to conditions: purified Src lacking first 84 amino acids, 200 ng. Further details: species or system chicken. How it is done:
(§1) The preparation of chicken c-Src lacking the SH4 domain and GST-Src mutants were done (Ma et al., 2000). GST-NT (amino acid residue 6-90) [SEQ ID NO: 51], GST-CD2 (amino acid residue 152-288) [SEQ ID NO 52], and GST-CD3 (amino acid residue 350-785) [SEQ ID NO: 53] expression vectors were constructed based on the sequence of pig kidney Na+/K+-ATPase α1 subunit (see FIG. 3A).
(§2) The purified Na+/K+-ATPase was solubilized in 1% Triton X-100 PBS and centrifuged at 100,000×g for 30 min. The supernatant was collected for the binding assay. GST-fusion proteins (5 μg) were conjugated on glutathione beads and incubated with the solubilized Na+/K+-ATPase in 500 μl PBS in the presence of 0.5% Triton X-100 at room temperature for 30 min. The beads were washed with the same buffer for four times. The bound Na+/K+ATPase was resolved on 10% SDS-PAGE and detected by Western blot. Reciprocal binding assay using GST-Na+/K+-ATPase constructs (5 μg) and purified Src lacking of first 85 amino acids (200 ng) or His-tagged Src constructs (100 ng) was done similarly. To test if native Na+/K+-ATPase binds Src, the above experiments were repeated in the absence of Triton X-100. To make the Na+/K+-ATPase/Src complex, 2-5 μg of the purified Na+/K+ATPase was incubated with 4.5 U of Src (˜10 ng) in PBS in the absence of Triton X-100 at room temperature for 30 min. The complex was either used for the experiments directly as indicated or collected by centrifugation at 100,000×g for 30 min.

Series [3] deals with Src. The series is described as above. Further details: species or system chicken. How it is done:
as §1, §2

The target in series [4] is T2, Src (Sus scrofa, UniProt K7GM45).
T2 construct: endogenous in cells; host or cells: LLC-PK1 (pig kidney)
In words: Src pY418 in LLC-PK1 cells transiently transfected with YFP-tagged constructs. It is filed as cell-based, pig. To be noted: transient transfection 24 h. The procedure: FIG. 22A. LLC-PK1 cells were transient-transfected with YFP-tagged ND1, ND, and CD3 for 24 h.
Cells were then lysed in RIPA buffer and probed for pY418. YFP were also transient-transfected into LLC-PK1 cells as control.

Series [5] concerns SYF and SYF+Src cells. In words: Protein tyrosine phosphorylation in SYF and SYF+Src cells. The class given is cell-based, mouse. As to conditions: SYF+Src cells. How it is done: FIG. 9B. Both SYF and SYF+Src cells were treated with 100 μM ouabain for 5 min and analyzed as in A. Representative Western blots of three experiments are shown in both A and B.
(§3) Cells were lysed in RIPA buffer containing 1% Nonidet P40, 0.25% sodium deoxycholate, 150 mM NaCl, 1 mM EDTA, 1 mM phenylmethylsulfonyl fluoride, 1 mM sodium orthovanadate, 1 mM NaF, 10 μg/ml aprotinin, 10 μg/mlleupeptin, and 50 mM Tris-HCl (pH 7.4). Cell lysates were cleared by centrifugation at 16,000×g for […], and the supernatants (1 mg) were either immunoprecipitated with anti-α1 antibody or incubated with different GST-fusion proteins. The complexes were then pulled down by either protein G agarose or glutathione beads (Ma et al., 2000; Haas et al., 2002) and analyzed by Western blot.

The test system of series [6] is PY-17 cells. The series is described as follows: FAK Tyr925 phosphorylation in α1 knockdown cells. To be noted: 1 μM PP2 for 0.5 and 2 h. It is filed as cell-based, pig. The procedure:
FIG. 17D. P-11 and PY-17 cells were treated with 1 μM PP2 for 0.5 and 2 h. FAK and Src activation was measured by using the specific antibodies. A representative Western blot is shown, and the same experiments were repeated three times.
(§4) Cells were washed with PBS, solubilized in modified ice-cold radioimmune precipitation assay buffer, and subjected to immunoprecipitation or Western blot analysis. Protein signal was detected using the enhanced chemiluminescence kit and quantified using a Bio-Rad GS-670 imaging densitometer.

The target of series [7] is T2, Src. In words: GST-CD3 pulldown of Src from LLC-PK1 cell lysates. To be noted: 1 mg LLC-PK1 cell lysates. The class given is binding, pig. The procedure:
FIG. 4C. A Western blot showing that Src was pulled down by GST-CD3 of Na+/K+-ATPase (Na/K) and H+/K+-ATPase (H/K), but not SERCA from 1 mg LLC-PK1 cell lysates.
as §3

Series [8] deals with Src and ERK1/2. The series is described as follows: Activation of Src and ERK1/2 in P-11, A4-11, PY-17 and AAC-19 cells (Western blot). It is filed as cell-based, pig. As to conditions: for increase in SrcTyr(P)418: n=3. The procedure:
FIGS. 18A and 18B. Cells were exposed to 100 nM ouabain for either 5 or 15 min, and the cell lysates (50 μg/lane) were analyzed by Western blot for active Src or active ERK1/2. Blots were probed first with anti-Tyr(P)^418-Src or anti-pERK antibody, then stripped, and reprobed for total Src or ERK1/2 to ensure equal loading.
FIGS. 18 C and 18D. Cells were treated with indicated concentrations of ouabain for 5 min, and total cell lysates were analyzed for Tyr(P)^418-Src and total Src or pERK1/2 and total ERK1/2 as in FIGS. 18A and 18B. A representative Western blot and combined quantitative data are shown. The quantitative data (relative ratio of pSrc/Src or pERK/ERK) from three independent experiments (mean±S.E.) were calculated relative to the control condition of P-11 cells. *, p<0.05 versus the respective control condition of each cell line. con, control.
as §4
(In general: In western blotting, separated proteins are transferred to a membrane and probed.)

Series [9] deals with LLC-PK1 cells. In words: Recruitment of Src to the Na+/K+-ATPase signaling complex (co-immunoprecipitation). It is filed as cell-based, pig. To be noted: 1 μM pretreatment 15 min, then 1 μM ouabain 5 min. The procedure:
FIG. 9C Inhibition of Src blocks ouabain-induced recruitment of Src to the Na+/K+-ATPase signaling complex. LLC-PK1 cells were pretreated with 1 μM PP2 or PP3 for 15 min and then exposed to 1 μM ouabain for 5 min. Cell lysates were immunoprecipitated and analyzed. Values are mean±SE of at least four independent experiments. * p<0.05.
as §3

For series [10], the target named is T3, Na+/K+-ATPase/Src complex (Sus scrofa, UniProt P05024).
T3 construct: Na+/K+-ATPase was purified from pig kidney outer medulla using the Jorgensen method; tissue Upstate Biotechnology (Src only); host or cells: pig kidney outer medulla (Na+/K+-ATPase)
The series is described as follows: Src pY418 phosphorylation of the Na+/K+-ATPase/Src complex (Western blot). It is filed as biochemical. The procedure: (§5) The Src kinase activity was assayed using a commercial kit (Haas et al., 2000). To determine how Na+/K+-ATPase affects Src kinase activity, the purified Src (4.5 U) was incubated with 5 μg of the purified Na+/K+-ATPase in the Src assay buffer for 30 min at room temperature. Afterward, both control Src or the Na+/K+-ATPase-bound Src were exposed to 10 μM ouabain and Src kinase activity was determined. In other experiments, the Src pY418 was measured by anti-pY418 antibody to indicate Src activation (Ma et al., 2000). To do so, the purified Src (4.5 U) was incubated with different amounts of the purified Na+/K+-ATPase or GST-Na+/K+ATPase constructs in phosphate-buffered saline (PBS) for 30 min at 37° C. Afterward, 2 mM ATP/Mg2+ was added. The reaction continued for 5 min at 37° C. and was stopped by addition of SDS sample buffer.
as §2

Series [11] has as its target T4, purified Na+/K+-ATPase (Sus scrofa, UniProt P05024).
T4 construct: Na+/K+-ATPase was purified from pig kidney outer medulla using the Jorgensen method; from tissue; host or cells: pig kidney outer medulla
The series is described as follows: In vitro GST pulldown binding assay with purified Na+/K+-ATPase. Also on record: species or system pig. As to conditions: GST-tagged Src truncations and purified Na+/K+-ATPase. How it is done:
as §2

Series [12] concerns the target T5, purified pig kidney Na+/K+-ATPase (Sus scrofa, UniProt P05024).
T5 construct: Na+/K+-ATPase was purified from pig kidney outer medulla using the Jorgensen method; from tissue; host or cells: pig kidney outer medulla
In words: ATPase activity of purified pig kidney Na+/K+-ATPase. It is filed as biochemical. The text has this: Src, without the first 85 amino acid residues, was purified from sf-9 cells as described (Ma et al., 2000) and used in the initial binding assays to ensure that Src binds to the Na+/K+-ATPase, but not the lipid composition in the purified Na+/K+-ATPase preparation. In subsequent experiments (e.g., phosphorylation and activity assays), purified recombinant full-length Src from Upstate Biotechnology was used. Na+/K+-ATPase was purified from pig kidney outer medulla using the Jorgensen method (Xie et al., 1996) and the preparations with specific activities between 1200 and 1400 μmol Pi/mg/h were used.
GST fusion proteins or His-tagged proteins were expressed in Escherichia coli BL21 and purified on glutathione beads or nickel column.

In series [13] the target is T6, Src (Homo sapiens, UniProt P12931).
T6 construct: purified recombinant full-length Src from Upstate Biotechnology was used; purchased Upstate Biotechnology (Lake Placid, N.Y.)
In words: Src pY418 autophosphorylation / activity of purified recombinant Src. The class given is biochemical. As to conditions: recombinant Src (4.5 U) incubated 30 min, then 2 mM ATP/Mg2+ 5 min. The procedure:
as §5
The reaction was stopped by adding 5× loading buffer. pY418 was probed to measure Src activation.

`CN[C@@H]1[C@@H](O)[C@@H](O[C@@H]2[C@@H](O)[C@H](O[C@H]3O[C@H]([C@@H](C)O)[C@@H](O)[C@H](O)[C@H]3N)[C@@H](N)C[C@H]2N)OC[C@]1(C)O` [Peptide G418, G418]: the “concentration required to kill the untransfected cells” value in series [1] (untransfected cells) was “more than 3 mg/ml”.

Regarding “GST-CD2: GST fusion of pig kidney Na+/K+-ATPase α1 amino acid residue 152-288”, the “interaction with Src” value in series [2] is on record as “interacted”. Moreover, in [3], the “interaction with His-tagged SH3SH2 domain of Src” value is on record as “interacted with the SH3SH2 domain” and the “interaction with His-tagged kinase domain of Src” value is “not the kinase domain”.

Turning to “CD3: YFP-tagged cytosolic domain 3 of Na+/K+-ATPase α1”, the “Src phosphorylation (pY418) in LLC-PK1 cells” value in [4] is listed as “decrease Src phosphorylation”.

For `CC(C)(C)n1nc(-c2ccc(Cl)cc2)c2c(N)ncnc21` [PP2], the “block of ouabain-induced protein tyrosine phosphorylation” value in series [5] is listed as “able to block”. Further, in [6], the “increase in FAK Tyr(P)925 in knockdown cells” value is given as “sensitive”.

On to “GST-H+/K+-CD3: GST fusion of the CD3 from rat gastric H+/K+-ATPase”, for which the “pulldown of Src from LLC-PK1 cell lysates” value in series [7] is on record as “pulled down Src”.

With `CN(CC[C@H](N)CC(=O)N[C@H]1C=C[C@H](n2ccc(N)nc2=O)O[C@@H]1C(=O)O)C(=N)N` [blasticidin], in [1] (15 μg/ml), the “sensitivity of knockdown cells” value is reported as “sensitive to blasticidin”.

With “epidermal growth factor: epidermal growth factor”, the “increase in SrcTyr(P)418” value in series [8] (P-11 cells) was 2.5±0.3 fold; in [8] (PY-17 cells), 1.7±0.2 fold. Besides, the “stimulation of ERK1/2” value in series [8] (PY-17 cells) is “able to stimulate ERK1/2”.

Take `Nc1ncnc2c1cnn2-c1ccccc1` [PP3]: in series [9], the “block of ouabain-induced recruitment of Src to the Na+/K+-ATPase” value was “failed to block”.

For “LRLEVKLGQGCFGEVWMGTWNGTTRVAIKTLKPGTMSPEAFLQEAQVMKKLRHE [KD1]”, in series [10] (competing the binding motif for Src), the “activation of Na+/K+-ATPase-inhibited Src” value is given as “effective in activating the Na+/K+-ATPase-inhibited Src”. Further, the “binding to Na+/K+-ATPase” value in series [11] was “binds Na+/K+-ATPase”.

With `[O]=[V]([O-])([O-])[O-]` [vanadate], the “Src pY418 of Na+/K+-ATPase/Src complex” value in series [10] (10-100 μM vanadate) is recorded as “no effect on Src pY418”. In addition, the “inhibition of the ATPase activity” value is recorded as “complete inhibition” in series [12] (100 μM vanadate) and “completely inhibited the ATPase activity” in [12] (10-100 μM vanadate).

For the compound “GST-CD3: GST fusion of pig kidney Na+/K+-ATPase α1 amino acid residue 350-785”, the “interaction with Src” value in [2] is listed as “interacted”. Besides, in series [3], the “interaction with His-tagged SH3SH2 domain of Src” value is “not the SH3SH2 domain” and the “interaction with His-tagged kinase domain of Src” value is reported as “interacted with the kinase domain”. In series [13], the “Src pY418 (autophosphorylation at Tyr418)” value is on record as “dose-dependent inhibition”. The “pulldown of Src from LLC-PK1 cell lysates” value in [7] is reported as “pulled down”.
